Experimental data taken from patent publication US20150284375A1 (AJINOMOTO CO., INC., priority 2012, published 2015).

Target: T1, human TRPA1 (Homo sapiens, UniProt O75762)
T1 construct: expressed in transfected cells; host or cells: Human embryonic kidney-derived 293T cells, transiently transfected with the pcDNA3.1/zeo(+) human TRPA1 plasmid
Assay: Measurement of TRPA1 antagonist activity (intracellular calcium increase, FLIPR, allylisothiocyanate stimulation)
Format: cell-based
Conditions: 293T cells transfected with human TRPA1; allylisothiocyanate 20 μM; concentration for 50% inhibitory rate; read-out: antagonism hTRPA1
Outline: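 IC50 derives from a sigmoid fit of inhibition of the 5-min FLIPR fluorescence change evoked by 20 μM allylisothiocyanate, normalized between agonist and buffer responses. Test substance, diluted in HBSS/20 mM HEPES pH 7.2 plus 0.1% BSA, was applied 10 min beforehand at room temperature to Calcium4-loaded 293T cells transiently expressing human TRPA1.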

T1 sequence (O75762 whole entry): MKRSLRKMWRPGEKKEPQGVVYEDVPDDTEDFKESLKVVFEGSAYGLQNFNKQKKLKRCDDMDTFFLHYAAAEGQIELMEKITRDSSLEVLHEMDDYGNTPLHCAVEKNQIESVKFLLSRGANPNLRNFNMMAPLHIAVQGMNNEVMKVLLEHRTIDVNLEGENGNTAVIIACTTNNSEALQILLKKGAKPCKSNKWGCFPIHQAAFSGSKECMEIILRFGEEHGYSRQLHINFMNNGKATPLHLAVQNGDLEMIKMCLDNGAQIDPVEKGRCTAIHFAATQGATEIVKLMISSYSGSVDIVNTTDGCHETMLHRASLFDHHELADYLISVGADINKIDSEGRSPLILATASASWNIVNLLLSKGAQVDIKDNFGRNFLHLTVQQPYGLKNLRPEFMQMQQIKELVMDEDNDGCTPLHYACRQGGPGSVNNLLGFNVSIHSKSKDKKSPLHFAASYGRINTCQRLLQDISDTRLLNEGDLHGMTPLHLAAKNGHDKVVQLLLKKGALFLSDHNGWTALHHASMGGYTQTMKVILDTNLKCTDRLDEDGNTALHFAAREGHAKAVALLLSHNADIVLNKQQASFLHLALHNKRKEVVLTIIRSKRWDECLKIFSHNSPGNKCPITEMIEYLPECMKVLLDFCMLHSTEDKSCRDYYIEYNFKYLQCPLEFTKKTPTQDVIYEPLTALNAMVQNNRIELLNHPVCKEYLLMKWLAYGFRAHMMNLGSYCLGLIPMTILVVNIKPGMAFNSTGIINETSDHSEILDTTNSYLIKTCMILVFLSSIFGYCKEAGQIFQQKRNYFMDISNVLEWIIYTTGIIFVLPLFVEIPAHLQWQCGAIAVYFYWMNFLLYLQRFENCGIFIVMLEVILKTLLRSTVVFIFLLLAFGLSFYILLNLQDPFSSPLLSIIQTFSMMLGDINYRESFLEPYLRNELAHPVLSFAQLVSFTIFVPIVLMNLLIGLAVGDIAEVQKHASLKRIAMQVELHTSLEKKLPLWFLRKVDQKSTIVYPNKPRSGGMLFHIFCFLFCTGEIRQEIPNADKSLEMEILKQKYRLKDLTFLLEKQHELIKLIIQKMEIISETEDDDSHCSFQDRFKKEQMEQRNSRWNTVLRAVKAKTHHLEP

Going from `Cc1ccccc1OCc1ccc(CNC(=O)[C@@H]2CCCN2S(=O)(=O)c2ccc(Cl)s2)cc1` [Example 61, (2S)-1-(5-chlorothiophene-2-sulfonyl)-N-({4-[(2-methyl-phenoxy)methyl]phenyl}methyl)pyrrolidine-2-carboxamide] to `O=C(NCc1ccc(COc2ccccc2F)cc1)[C@@H]1CCCN1S(=O)(=O)c1ccc(Cl)s1` [Example 63, (2S)-1-(5-chlorothiophene-2-sulfonyl)-N-({4-[(2-fluoro-phenoxy)methyl]phenyl}methyl)pyrrolidine-2-carboxamide], the IC50 rises from 190 nM to 440 nM (2.3-fold). The first is the more potent here.

Compared with `COc1ccccc1OCc1ccc(CNC(=O)[C@@H]2CCCN2S(=O)(=O)c2ccc(Cl)s2)cc1` [Example 62, (2S)-1-(5-chlorothiophene-2-sulfonyl)-N-({4-[(2-methoxy-phenoxy)methyl]phenyl}methyl)pyrrolidine-2-carboxamide], `O=C(NCc1ccc(COc2ccccc2Cl)cc1)[C@@H]1CCCN1S(=O)(=O)c1ccc(Cl)s1` [Example 64, (2S)-N-({4-[(2-chlorophenoxy)methyl]phenyl}methyl)-1-(5-chlorothiophene-2-sulfonyl)pyrrolidine-2-carboxamide] is 2.3-fold lower in IC50: 1100 nM for the first, 480 nM for the second.

Compared with `O=C(NCc1ccc(COc2c(F)cccc2F)cc1)[C@@H]1CCCN1S(=O)(=O)c1ccc(Cl)s1` [Example 65, (2S)-1-(5-chlorothiophene-2-sulfonyl)-N-({4-[(2,6-difluoro-phenoxy)methyl]phenyl}methyl)pyrrolidine-2-carboxamide], `O=C(NCc1cccc(OCc2ccc(Cl)cc2)c1)[C@@H]1CCCN1S(=O)(=O)c1ccc(Cl)s1` [Example 98] is 13-fold lower in IC50: 130 nM for the first, 10 nM for the second.

Compared with `COC(=O)c1ccccc1OCc1ccc(CNC(=O)[C@@H]2CCCN2S(=O)(=O)c2ccc(Cl)s2)cc1` [Example 66, methyl 2-((4-({[(2S)-1-(5-chlorothiophene-2-sulfonyl)pyrrolidine-2-carbonyl]amino}methyl)phenyl)methoxy)benzoate], `O=C(NCc1ccc(OCc2ccccc2)cc1)[C@@H]1CCCN1S(=O)(=O)c1ccc(Cl)s1` [Example 91] is 8.3-fold lower in IC50: 780 nM for the first, 94 nM for the second. The second is the more potent here.

Going from `O=C(NCc1ccc(COc2cncc(Cl)c2)cc1)[C@@H]1CCCN1S(=O)(=O)c1ccc(Cl)s1` [Example 67, (2S)-N-({4-[(5-chloro-3-pyridyl)oxymethyl]phenyl}methyl)-1-(5-chlorothiophene-2-sulfonyl)pyrrolidine-2-carboxamide] to `O=C(NCc1cccc(OCc2ccc(F)cc2)c1)[C@@H]1CCCN1S(=O)(=O)c1ccc(Cl)s1` [Example 99], the IC50 falls from 730 nM to 12 nM (61-fold). The second is the more potent here.

Compared with `O=C(NCc1ccc(COc2ccc3ncccc3c2)cc1)[C@@H]1CCCN1S(=O)(=O)c1ccc(Cl)s1` [Example 68, (2S)-1-(5-chlorothiophene-2-sulfonyl)-N-{[4-(6-quinolyloxy-methyl)phenyl]methyl}pyrrolidine-2-carboxamide], `O=C(NCc1ccc(COc2cc3ccccc3cn2)cc1)[C@@H]1CCCN1S(=O)(=O)c1ccc(Cl)s1` [Example 69] is 2.4-fold lower in IC50: 4400 nM for the first, 1800 nM for the second. The second is the more potent here.

Going from `O=C(NCc1cccc(COc2ccccc2)c1)[C@@H]1CCCN1S(=O)(=O)c1ccc(Cl)s1` [Example 70] to `O=C(NCc1cccc(OCc2ccccc2)c1)[C@@H]1CCCN1S(=O)(=O)c1ccc(Cl)s1` [Example 95], the IC50 falls from 340 nM to 22 nM (15-fold). The second is the more potent here.

Going from `O=C(NCc1cccc(COc2ccc(C(F)(F)F)cc2)c1)[C@@H]1CCCN1S(=O)(=O)c1ccc(Cl)s1` [Example 71] to `O=C(NCc1ccc(OCc2cccc(C(F)(F)F)c2)cc1)[C@@H]1CCCN1S(=O)(=O)c1ccc(Cl)s1` [Example 93], the IC50 rises from 270 nM to 4200 nM (16-fold). The first is the more potent here.

First: CC(NC(=O)[C@@H]1CCCN1S(=O)(=O)c1ccc(Cl)s1)c1ccc(COc2ccccc2)cc1 (stereo partly shown) [Example 72]
Second: O=C(NCc1ccc(COc2ccccc2)cc1Cl)[C@@H]1CCCN1S(=O)(=O)c1ccc(Cl)s1 [Example 73]
The IC50 of the first is 25-fold higher: 3800 nM for the first, 150 nM for the second.

`O=C(NCc1ccc(COc2ccc(C(F)(F)F)cc2)cc1Cl)[C@@H]1CCCN1S(=O)(=O)c1ccc(Cl)s1` [Example 74] and `O=C(NCc1ccc(COc2cccc(C(F)(F)F)c2)cc1Cl)[C@@H]1CCCN1S(=O)(=O)c1ccc(Cl)s1` [Example 75] are within 1.5-fold of each other in IC50: 180 nM for the first, 140 nM for the second.

Compared with `O=C(NCc1ccc(COc2ccccc2)cc1C(F)(F)F)[C@@H]1CCCN1S(=O)(=O)c1ccc(Cl)s1` [Example 76], `O=C(NCc1cccc(OCc2ccccc2C(F)(F)F)c1)[C@@H]1CCCN1S(=O)(=O)c1ccc(Cl)s1` [Example 104] is 2-fold lower in IC50: 160 nM for the first, 80 nM for the second.

`O=C(NCc1ccc(COc2ccc(C(F)(F)F)cc2)cc1C(F)(F)F)[C@@H]1CCCN1S(=O)(=O)c1ccc(Cl)s1` [Example 77] and `O=C(NCc1ccc(COc2cccc(C(F)(F)F)c2)cc1C(F)(F)F)[C@@H]1CCCN1S(=O)(=O)c1ccc(Cl)s1` [Example 78] are within 1.5-fold of each other in IC50: 100 nM for the first, 120 nM for the second.

First: O=C(NCc1ccccc1COc1ccccc1)[C@@H]1CCCN1S(=O)(=O)c1ccc(Cl)s1 [Example 79]
Second: O=C(NCc1ccccc1COc1cccc(C(F)(F)F)c1)[C@@H]1CCCN1S(=O)(=O)c1ccc(Cl)s1 [Example 81]
The IC50 of the first is 3.8-fold higher: 2200 nM for the first, 580 nM for the second.

`O=C(NCc1ccccc1COc1ccc(C(F)(F)F)cc1)[C@@H]1CCCN1S(=O)(=O)c1ccc(Cl)s1` [Example 80] and `O=C(NCc1ccc(OCc2ccccc2C(F)(F)F)cc1)[C@@H]1CCCN1S(=O)(=O)c1ccc(Cl)s1` [Example 94] are within 1.5-fold of each other in IC50: 270 nM for the first, 370 nM for the second.

Going from `O=C(NCc1ccc(COc2ccccc2)cc1)[C@@H]1CCCN1S(=O)(=O)c1ccc(F)cc1` [Example 82, (2S)-1-[(4-fluorophenyl)sulfonyl]-N-{[4-(phenoxymethyl)phenyl]methyl}pyrrolidine-2-carboxamide] to `O=C(NCc1ccc(COc2ccccc2)cc1)[C@@H]1CCCN1S(=O)(=O)c1cccc(F)c1` [Example 85], the IC50 rises from 1200 nM to 3500 nM (2.9-fold).

First: O=C(NCc1ccc(COc2ccccc2)cc1)[C@@H]1C=CCN1S(=O)(=O)c1ccc(Cl)s1 [Example 83]
Second: O=C(NCc1cccc(OCc2ccccc2)c1)[C@@H]1C=CCN1S(=O)(=O)c1ccc(Cl)s1 [Example 107, (2S)—N-[(3-benzyloxyphenyl)methyl]-1-(5-chlorothiophene-2-sulfonyl)-2,5-dihydropyrrole-2-carboxamide]
The IC50 of the first is 31-fold higher: 430 nM for the first, 14 nM for the second.

First: O=C(NCc1ccc(COc2ccccc2)cc1)[C@@H]1CCCN1S(=O)(=O)c1ccc(F)c(F)c1 [Example 84]
Second: O=C(NCc1cccc(OCc2ccccc2)c1)[C@@H]1CCCN1S(=O)(=O)c1ccc(F)c(F)c1 [Example 110]
The IC50 of the first is 14-fold higher: 1100 nM for the first, 76 nM for the second. The second is the more potent here.

Going from `O=C(NCc1ccc(COc2ccccc2)cc1)[C@@H]1CCCN1S(=O)(=O)c1cccs1` [Example 86] to `O=C(NCc1cccc(OCc2ccccc2)c1)[C@@H]1CCCN1S(=O)(=O)c1ccc(F)cc1` [Example 108], the IC50 falls from 7000 nM to 66 nM (110-fold).

Compared with `O=C(NCc1ccc(COc2ccccc2)cc1)[C@@H]1CC(O)CN1S(=O)(=O)c1ccc(Cl)s1` (stereo partly shown) [Example 87], `O=C(NCc1cccc(OCc2ccccc2)c1)[C@@H]1CCN1S(=O)(=O)c1ccc(Cl)s1` [Example 109] is 64-fold lower in IC50: 7700 nM for the first, 120 nM for the second.

`O=C(NCc1nc(COc2ccc(C(F)(F)F)cc2)cs1)[C@@H]1CCCN1S(=O)(=O)c1ccc(Cl)s1` [Example 88] and `O=C(NCc1nc(COc2cccc(C(F)(F)F)c2)cs1)[C@@H]1CCCN1S(=O)(=O)c1ccc(Cl)s1` [Example 89] are within 1.5-fold of each other in IC50: 370 nM for the first, 340 nM for the second.

First: O=C(NCc1nc(COc2ccccc2C(F)(F)F)cs1)[C@@H]1CCCN1S(=O)(=O)c1ccc(Cl)s1 [Example 90]
Second: O=C(NCc1cccc(OCc2cccc(C(F)(F)F)c2)c1)[C@@H]1CCCN1S(=O)(=O)c1ccc(Cl)s1 [Example 100]
The IC50 of the first is 17-fold higher: 150 nM for the first, 8.9 nM for the second.

First: O=C(NCc1ccc(OCc2ccc(C(F)(F)F)cc2)cc1)[C@@H]1CCCN1S(=O)(=O)c1ccc(Cl)s1 [Example 92]
Second: O=C(NCc1cccc(OCc2ccc(C(F)(F)F)cc2)c1)[C@@H]1CCCN1S(=O)(=O)c1ccc(Cl)s1 [Example 96]
The IC50 of the first is 5.8-fold higher: 110 nM for the first, 19 nM for the second.

Going from `O=C(NCc1cccc(OCc2ccc(OC(F)(F)F)cc2)c1)[C@@H]1CCCN1S(=O)(=O)c1ccc(Cl)s1` [Example 97] to `O=C(NCc1cccc(OCc2cccc(OC(F)(F)F)c2)c1)[C@@H]1CCCN1S(=O)(=O)c1ccc(Cl)s1` [Example 101], the IC50 falls from 30 nM to 16 nM (1.9-fold). The second is the more potent here.

`O=C(NCc1cccc(OCc2cccc(Cl)c2)c1)[C@@H]1CCCN1S(=O)(=O)c1ccc(Cl)s1` [Example 102] and `O=C(NCc1cccc(OCc2cccc(F)c2)c1)[C@@H]1CCCN1S(=O)(=O)c1ccc(Cl)s1` [Example 103] are the same in IC50: 15 nM for the first, 15 nM for the second.

Going from `O=C(NCc1ccc(F)c(OCc2ccc(C(F)(F)F)cc2)c1F)[C@@H]1CCCN1S(=O)(=O)c1ccc(Cl)s1` [Example 105] to `O=C(NCc1c(F)ccc(OCc2ccc(C(F)(F)F)cc2)c1Cl)[C@@H]1CCCN1S(=O)(=O)c1ccc(Cl)s1` [Example 106], the IC50 rises from 130 nM to 1200 nM (9.2-fold). The first is the more potent here.

Going from `O=C(NCc1cccc(OCc2ccc(C(F)(F)F)cc2)c1)[C@@H]1C=CCN1S(=O)(=O)c1ccc(F)cc1` [Example 111] to `O=C(NCc1cccc(OCc2ccc(C(F)(F)F)cc2)c1)[C@@H]1CCN1S(=O)(=O)c1ccc(F)cc1` [Example 112], the IC50 rises from 24 nM to 230 nM (9.6-fold). The first is the more potent here.

With `O=C(NCc1cccc(OCc2ccc(C(F)(F)F)cc2)c1)[C@@H]1CCCN1S(=O)(=O)c1ccc(Cl)cc1` [Example 113] the IC50 was 71 nM.

Same assay, conditions: allylisothiocyanate 20 μM stimulation, FLIPR calcium assay; read-out: antagonism hTRPA1

Compared with `O=C(NCc1cccc(Oc2ccnc(C(F)(F)F)c2)c1)[C@@H]1CCCN1S(=O)(=O)c1ccc(F)cc1` [Example 114, (2S)-1-(4-fluorophenyl)sulfonyl-N-[[3-[[2-(trifluoromethyl)-4-pyridyl]oxy]phenyl]methyl]pyrrolidine-2-carboxamide], `O=C(NCc1cccc(Oc2ccc(C(F)(F)F)nc2)c1)[C@@H]1CCCN1S(=O)(=O)c1ccc(F)cc1` [Example 115, (2S)-1-(4-fluorophenyl)sulfonyl-N-[[3-[[6-(trifluoromethyl)-3-pyridyl]oxy]phenyl]methyl]pyrrolidine-2-carboxamide] is 2.7-fold lower in IC50: 570 nM for the first, 210 nM for the second.
